The record followed here is ChEMBL document CHEMBL1201862, “PubChem BioAssay data set” (2004).

Structures are written as SMILES.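 Protocol summary: plate cells (96-well), add compound at 5 concentrations, incubate 48 h, interpolate endpoints linearly. GI50 = concentration required for 50% inhibition of growth.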 Calls of active or inactive are those of the source. No stated cut-off is given here; in the data, active = GI50 up to about 1.1 µM and inactive = higher.

What all share (assay): NCI-60 cell line screen, 48 h
Test [1] relates to UO-31.
In test [2] the test system is SK-OV-3.
Test [3] relates to MOLT-4.
Test [4] relates to K562.
Test [5] concerns PC-3.
Test [6] deals with T47D.
The test system of test [7] is HOP-92.
The subject of test [8] is RXF 393.
The subject of test [9] is OVCAR-5.
The subject of test [10] is SK-MEL-28.
Test [11] concerns SF-268.
The subject of test [12] is DU-145.
The subject of test [13] is MDA-MB-231.
The subject of test [14] is BT-549.
In test [15] the test system is SK-MEL-2.
The test system of test [16] is HT-29.
Test [17] has as its system OVCAR-4.
Test [18] relates to A498.
Test [19] relates to KM12.
In test [20] the test system is A549.

`CC1OC(O[C@H]2CC[C@]3(C=O)[C@H]4CC[C@]5(C)[C@H](C6=CC(=O)OC6)CC[C@]5(O)[C@@H]4C=C[C@]3(O)C2)CC(O)C1O` (stereo not given in full): the GI50 in test [1] was 0.214 µM (active); in [2] it was 0.502 µM (active); in test [3] it was 0.083 µM (active); in test [4], 0.294 µM (active); in [5], 0.306 µM (active); in test [6], 0.524 µM (active). For the same compound, the GI50 is 0.577 µM (active) in test [7]; 0.0661 µM (active) in test [8]; 0.547 µM (active) in [9]; 0.692 µM (active) in test [10]; 0.176 µM (active) in test [11]; 0.128 µM (active) in test [12]. The GI50 was 0.433 µM (active) in test [13]; 0.224 µM (active) in test [14]; 0.505 µM (active) in [15]; 0.321 µM (active) in test [16]; 0.349 µM (active) in test [17]; 0.176 µM (active) in test [18]. For the same compound, the results for the GI50 in test [19] and in test [20] were 0.676 µM (active) and 0.113 µM (active), respectively.

As for `CCCCCCCCCCC(O)C1CCC(C2CCC(C(O)CCCCC(O)CCCCCC(O)CC3=CC(C)OC3=O)O2)O1` (stereo not given), the GI50 was > 25 µM (inactive) in test [1]; > 25 µM (inactive) in [2]; 2.97 µM (inactive) in test [3]; > 6.9 µM (inactive) in [4]; > 25 µM (inactive) in test [5]; > 11.8 µM (inactive) in test [6]. In addition, the GI50 was > 25 µM (inactive) in [7]; > 17.2 µM (inactive) in test [8]; > 25 µM (inactive) in test [9]; > 25 µM (inactive) in test [10]; 4 µM (inactive) in [11]; 9.91 µM (inactive) in [12]. Besides, the GI50 in test [13] was > 25 µM (inactive); in test [14], > 25 µM (inactive); in test [15], > 25 µM (inactive); in [16], 3.21 µM (inactive); in [17], > 25 µM (inactive); in [18], > 25 µM (inactive). Besides, the values for the GI50 in test [19] and in [20] were 3.78 µM (inactive) and > 20.9 µM (inactive), respectively.

Turning to `Cc1c(CCCl)c(Cl)n2c(nc3ccccc32)c1C#N`, the GI50 was 1.28 µM (inactive) in test [1]; 4.9 µM (inactive) in test [2]; 0.172 µM (active) in test [3]; 0.321 µM (active) in test [4]; 1.02 µM (active) in test [5]; 1.38 µM (inactive) in test [6]. Further, the GI50 in test [7] was 1.15 µM (inactive); in test [8] it was 0.787 µM (active); in test [9], 1.63 µM (inactive); in test [10], 1.94 µM (inactive); in [11], 1.49 µM (inactive); in test [12], 1.69 µM (inactive). Moreover, the GI50 was 1.32 µM (inactive) in test [13]; 2.21 µM (inactive) in [14]; 1.06 µM (active) in test [15]; 1.42 µM (inactive) in test [16]; 1.44 µM (inactive) in test [17]; 1.37 µM (inactive) in [18]. The results for the GI50 in [19] and in test [20] were 1.19 µM (inactive) and 1.4 µM (inactive), respectively.

For the compound `CCN1C(Cl)=NS(=O)(=O)c2ccccc21`, the GI50 is 16.9 µM (inactive) in test [1]; 71.6 µM (inactive) in [2]; 10.2 µM (inactive) in [3]; 7.83 µM (inactive) in [4]; 50 µM (inactive) in test [5]; 30 µM (inactive) in test [6]. Further, the GI50 is 18.8 µM (inactive) in [7]; 17.3 µM (inactive) in test [8]; 26.4 µM (inactive) in test [9]; 74.8 µM (inactive) in test [10]; 36.6 µM (inactive) in test [11]; 36.7 µM (inactive) in test [12]. The GI50 in test [13] is 23 µM (inactive); in test [14], 17.5 µM (inactive); in test [15], 39.7 µM (inactive); in [16] it was 18.8 µM (inactive); in [17], 19.4 µM (inactive); in test [18], 22.4 µM (inactive). The GI50 in test [19] was 51.8 µM (inactive); in test [20] it was > 100 µM (inactive).

In the case of `COc1ccc(/C=C/c2nsc(/C=C/c3ccc(OC)cc3)n2)cc1`, the GI50 in test [1] was > 100 µM (inactive); in test [2], > 100 µM (inactive); in [3], 33 µM (inactive); in test [4] it was 33.3 µM (inactive); in [5], 48.5 µM (inactive); in [6] it was 38 µM (inactive). The GI50 in [7], in test [8], in test [9], in test [10], in [11] and in [12] was > 100 µM (inactive) in each case. Besides, the GI50 in test [13] is > 100 µM (inactive); in test [14], > 100 µM (inactive); in [15] it was > 100 µM (inactive); in [16] it was 36.5 µM (inactive); in test [17], > 100 µM (inactive); in test [18], > 100 µM (inactive). For the same compound, the GI50 in test [19] and in [20] was > 100 µM (inactive) throughout.

Take `Cc1cc(O)c(C(C)C)cc1/N=C/c1ccccc1O`: the GI50 in test [1] was 13.2 µM (inactive); in test [2] it was 15.2 µM (inactive); in test [3], 0.301 µM (active); in [4], 1.26 µM (inactive); in test [5], 5.08 µM (inactive); in [6], 0.36 µM (active). The GI50 is 0.621 µM (active) in test [7]; 1.34 µM (inactive) in test [8]; 20.6 µM (inactive) in test [9]; 15.1 µM (inactive) in test [10]; 6.21 µM (inactive) in test [11]; 5.53 µM (inactive) in test [12]. The GI50 is 1.73 µM (inactive) in [13]; 8.3 µM (inactive) in [14]; 11 µM (inactive) in [15]; 24.2 µM (inactive) in test [16]; 2.41 µM (inactive) in [17]; 23.6 µM (inactive) in test [18]. Further, the results for the GI50 in test [19] and in test [20] were 3.76 µM (inactive) and 18.5 µM (inactive), respectively.

In the case of `OC(COc1ccc(Cl)cc1Cl)CN1CCCC1` (stereo not given), the GI50 is > 100 µM (inactive) in [1]; > 100 µM (inactive) in test [2]; 42.6 µM (inactive) in [3]; 71.6 µM (inactive) in [4]; > 100 µM (inactive) in [5]; > 100 µM (inactive) in [6]. In addition, the GI50 in test [7] is 75.9 µM (inactive); in test [8], > 100 µM (inactive); in [9], > 100 µM (inactive); in test [10], 37.7 µM (inactive); in test [11], > 100 µM (inactive); in test [12], > 100 µM (inactive). Moreover, the GI50 in [13] was > 100 µM (inactive); in test [14], 30.5 µM (inactive); in test [15], > 100 µM (inactive); in test [16], 24.8 µM (inactive); in test [17] it was > 100 µM (inactive); in test [18], 38.1 µM (inactive). For the same compound, the GI50 in [19] and in [20] was > 100 µM (inactive) each time.

On to `CO[C@H]1C[C@@H]2CC[C@@H](C)[C@@](O)(O2)C(=O)C(=O)N2CCCC[C@H]2C(=O)O[C@H]([C@H](C)C[C@@H]2CC[C@@H](OC(=O)C(C)(CO)CO)[C@H](OC)C2)CC(=O)[C@H](C)/C=C(\C)[C@@H](O)[C@@H](OC)C(=O)[C@H](C)C[C@H](C)/C=C/C=C/C=C/1C` [TEMSIROLIMUS], for which the GI50 in [1] was 0.00496 µM (active); in test [2] it was 1.97 µM (inactive); in [3] it was 0.00176 µM (active); in [4], 0.0228 µM (active); in test [5], 0.00123 µM (active); in test [6], 0.000995 µM (active). In addition, the GI50 in test [7] was 0.00254 µM (active); in [8], 0.0034 µM (active); in test [9], 0.00363 µM (active); in test [10], 0.0298 µM (active); in [11], 0.00873 µM (active); in test [12], 0.0975 µM (active). Besides, the GI50 is 0.0217 µM (active) in test [13]; 0.00904 µM (active) in test [14]; 0.051 µM (active) in test [15]; 0.0376 µM (active) in [16]; 0.0247 µM (active) in test [17]; 0.0363 µM (active) in test [18]. Further, the GI50 in [19] is 0.0264 µM (active); in [20] it was 0.0301 µM (active).

For `COC(=N)C1(C#N)NC(c2ccsc2)C(C#N)(C#N)NC1c1ccsc1` (stereo not given), the GI50 is > 100 µM (inactive) in test [1]; > 100 µM (inactive) in test [2]; > 100 µM (inactive) in test [3]; > 100 µM (inactive) in test [4]; 81.1 µM (inactive) in test [5]; 80.2 µM (inactive) in test [6]. The GI50 in test [7] was 60.7 µM (inactive); in test [8], > 100 µM (inactive); in [9], > 100 µM (inactive); in [10] it was > 100 µM (inactive); in test [11], > 100 µM (inactive); in test [12], > 100 µM (inactive). Besides, the GI50 in test [13] is 76.7 µM (inactive); in test [14], > 100 µM (inactive); in [15], > 100 µM (inactive); in test [16] it was > 100 µM (inactive); in [17] it was > 100 µM (inactive); in test [18], > 100 µM (inactive). For the same compound, the GI50 in test [19] and in [20] was > 100 µM (inactive) in each case.

Regarding `COC1(C)CCC(OS(C)(=O)=O)CO1` (stereo not given), the GI50 in test [1], in test [2], in test [3], in [4], in [5] and in test [6] was > 100 µM (inactive) in each case. Also, the GI50 in test [7], in [8], in test [9], in test [10], in test [11] and in [12] was > 100 µM (inactive) in each case. Further, the GI50 in test [13], in test [14], in test [15], in test [16], in test [17] and in [18] was > 100 µM (inactive) each time. Besides, the GI50 in test [19] and in test [20] was > 100 µM (inactive) each time.
